Results reported in patent US20260137697A1, “THIAZOLO[5,4-D]PYRIMIDINE COMPOUNDS, COMPOSITIONS COMPRISING THEM AND USES THEREOF” (University de Montreal, priority 2022, published 2026).
Read-outs that look alike come from different tables or passages of the source.

Key:
Assay type in all cases: cell-based, human
[1] = test system: IPC298 cells; assay: Proliferation inhibition, CellTiter-Glo, IPC298; details: Table D-1, IPC298 (NRAS-Q61L), 3 days, read-out: Prolif. (proliferation EC50)
Experimental: (§1) All cancer cell lines (A375, A101D, A2058, RKO, HT29 SK-MEL 30, IPC298, HepG2, HCT-116, Lovo, SW620, SW480, NCI-H358, NCI-H2122, Calu-6, NCIH2087, NCIH1755, NCIH1666 and Mewo) were obtained from ATCC and cultured in RPM1-1640 medium (Gibco) supplemented with 5% heat inactivated fetal bovine serum (FBS, Wisent) at 37° C. under 5% CO2. Cells were maintained in T175 flasks (Greiner). They were passaged by removing the culture medium, washing once in 10 mL of room temperature Phosphate Buffered Saline (PBS; Wisent) and incubating at 37° C. with 2 mL of 0.05% Trypsin (Thermo-Fisher). Trypsin was then inactivated by adding complete growth medium and the cells were then replated in a T175 culture dish at the appropriate dilution. All cell lines were routinely tested for mycoplasma contamination. Tissue type and mutational status of each cell line can be found in Table B.
(§2) CellTiter-Glo® viability analysis was conducted on cells plated in 100 μL of complete RPMI-1640 growth medium in 96-well flat-bottomed white opaque plates (Greiner or Croning) at a density indicated in Table E (for each CCL, number of cells plated per well of a 96-well plate to perform the CellTiter-Glo® cell viability assay). The cell density in cells/cm^2 would correspond to cell number divided by the area of one well of a 96-well plate (0.32 cm^2). […]
(§3) After 3 days of incubation, the growth media were removed by aspiration and 60 μL of diluted CellTiter-Glo® reagent (10 μL CellTiter-Glo® reagent+50 μL of PBS) was added to each well. […] Luminescence signals were then acquired on a Synergy Neo2 plate reader (Biotek).
(§4) The effect of each compound dilution on the proliferation of cancer cell lines was expressed in % inhibition and calculated as follows. […]
(§5) The ability of each compound to inhibit proliferation was expressed as a EC50 value obtained by plotting the effect values for each data point of a dilution series and fitting the obtained curves using a log(agonist) versus response—variable slope (four parameters) function using GraphPadPrism (V7.0) or Dotmatics Screening Ultra platform.

[2] = test system: pERK, Calu6 cells; assay: Phospho-ERK inhibition, AlphaLISA p-ERK 1/2, Calu-6; details: Table D-2; for IC50: Calu6 (KRAS Q61K); for pERK value in parentheses, % inhibition (Ymin): Calu6, lowest point of IC50 curve
Experimental: as §1
(c) Measurement of Phospho-ERK Inhibition in Cultivated Human Cancer Cell Lines by the AlphaLISA® SureFire® Ultra™ p-ERK 1/2 (Thr2O2/Tyr204)
AlphaLISA® SureFire® Ultra™ p-ERK 1/2 (Thr202/Tyr204) analysis was conducted on cells plated in 100 μL of complete RPMI-1640 growth medium in 96-well flat-bottomed transparent dishes (Costar) at a density indicated in Table C. Cells were maintained overnight at 37° C. under 5% CO2 before treatment with compounds' dilution series for one hour. The cell density in cells/cm^2 corresponds to cell number divided by the area of one well of a 96-well plate (0.143 cm^2).
In a dilution series 100 μL/well of test substance dilution prepared in complete RPMI-1640 growth media was added to the cells. The dilution series is selected so that ten concentrations cover a range from 10 μM to 0.33 nM. If necessary, the initial concentration of 10 μM is increased to 100 μM or lowered to 1 μM (as in the case of A375 and H1666 cells, which are generally more sensitive to the compounds) and further dilution is carried out accordingly. The final concentration of DMSO in the assay is set at 0.5%.
After treatment, media was removed, and cells were lysed in 50 μL of 1× AlphaScreen Ultra Lysis Buffer (Perkin Elmer). The AlphaLISA® SureFire® Ultra™ p-ERK 1/2 (Thr202/Tyr204) (PerkinElmer) reactions were performed with 5 μL of cell lysate according to the manufacturer's specifications in 384-well proxyplates (Perkin Elmer) followed by overnight incubation of the reactions at room temperature in a humidified chamber. After completion of the reactions, the signals were recorded on an EnVision plate reader (Perkin Elmer) using built in AlphaLISA® settings.
The effect of each compound dilution on the pERK signal was expressed in % inhibition and calculated as follows. An internal 100% inhibition control (1 μM trametinib, cat. No. HY-10999; MedChem Express; CAS No. 871700-17-3) was included in each plate and used as a measure of pERK background. First, the value obtained for trametinib was subtracted from each data point. The average of DMSO (vehicle) controls (set as 0% inhibition) was established and used to calculate % inhibition:
as §5, with “pERK signal” for “proliferation”, “an IC50” for “a EC50”, “inhibition” for “effect”
When present, paradoxical pERK induction is inferred from the negative % inhibition values observed in the pERK IC50 curves of a compound.

[3] = test system: NCI-H2122 cells; assay: Proliferation inhibition, CellTiter-Glo, NCI-H2122; details: Table D-2, NCI-H2122 (KRAS-G12C), 3 days, read-out: Prolif. (proliferation EC50)
Experimental: as §1, §2, §3, §4, §5

[4] = test system: Calu6 cells; assay: Proliferation inhibition, CellTiter-Glo, Calu-6; details: Table D-2, Calu6 (KRAS Q61K), 3 days, read-out: Prolif. (proliferation EC50)
Experimental: as §1, §2, §3, §4, §5

[5] = test system: HT-29 cells; assay: Proliferation inhibition, CellTiter-Glo, HT-29; details: Table D-1, HT-29 (BRAF V600E), 3 days, read-out: Prolif. (proliferation EC50)
Experimental: as §1, §2, §3, §4, §5

`N#CC1(c2cccc3c2ncn3-c2nc3c(Nc4c(F)ccc(NS(=O)(=O)c5cccc(Cl)c5Cl)c4F)ncnc3s2)CC1` [Example 122] was tested, and the EC50 [1] was less than 300 nM, the IC50 [2] was 30 to 300 nM and the “pERK value in parentheses, % inhibition (Ymin)” value (from here on “pERK value … % inhibition (Ymin)”) [2] was “(−8) %”. It also gave an EC50 [3] of 300 to 3000 nM, an EC50 [4] of less than 300 nM and an EC50 [5] of less than 300 nM.

In the case of `Cc1ccc2c(Nc3cccc(Cl)c3F)nccc2c1NC(=O)c1csc2c(N)ncnc12` [Belvarafenib, reference compound], the EC50 ([1]; Homo sapiens, IPC-298, 72 h) is reported as less than 300 nM, the IC50 ([2]; Homo sapiens, Calu-6) is reported as 30 to 300 nM and the “pERK value … % inhibition (Ymin)” value [2] is reported as “(−39) %”. The EC50 ([3]; Homo sapiens, 72 h) was 300 to 3000 nM, the EC50 ([4]; Homo sapiens, Calu-6, 72 h) was less than 300 nM and the EC50 ([5]; Homo sapiens, 72 h) was less than 300 nM.

For `Cc1c(F)cccc1S(=O)(=O)Nc1ccc(F)c(Nc2ncnc3sc(-n4cc(C(=O)N5C6CCC5CN(C)C6)c5ccccc54)nc23)c1F` [Example 44], the EC50 [1] was less than 300 nM, the IC50 [2] was less than 30 nM and the “pERK value … % inhibition (Ymin)” value [2] was “(−12) %”. For the same molecule, the EC50 [3] was less than 300 nM, the EC50 [4] was less than 300 nM and the EC50 [5] was less than 300 nM.
